The source of these data is patent US9790201B2, “Piperidine and azepine derivatives as prokineticin receptor modulators” (TAKEDA PHARMACEUTICAL COMPANY LIMITED, priority 2013, dated 2017).

human PKR1 receptors, sequence (Q8TCW9 whole entry): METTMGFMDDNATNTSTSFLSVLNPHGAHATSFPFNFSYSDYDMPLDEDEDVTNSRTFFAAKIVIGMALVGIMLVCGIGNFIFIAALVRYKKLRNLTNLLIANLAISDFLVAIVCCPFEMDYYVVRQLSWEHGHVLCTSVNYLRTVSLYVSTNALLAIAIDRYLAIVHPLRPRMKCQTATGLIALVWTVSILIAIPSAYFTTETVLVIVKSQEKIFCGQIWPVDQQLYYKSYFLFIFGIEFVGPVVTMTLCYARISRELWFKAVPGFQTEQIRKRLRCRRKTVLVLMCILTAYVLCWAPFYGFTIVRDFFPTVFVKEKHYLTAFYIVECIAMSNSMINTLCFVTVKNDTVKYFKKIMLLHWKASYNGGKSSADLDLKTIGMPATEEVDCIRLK

This assay concerns the target human PKR1 receptors (Homo sapiens (Human), UniProt Q8TCW9). Kind of assay: PKR1 antagonist assay: block of PK1-mediated intracellular calcium release (FLIPR Tetra). The assay is classed as cell-based. The note with it: RBL2H3 cells expressing human PKR1; stimulation with PK1 at EC80; calcium fluorescence. In short, it runs like this:
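RBL2H3 cells expressing human PKR1, loaded 1 h at 37 °C with Calcium 5 dye plus 1 mM probenecid in HBSS/25 mM HEPES/0.1% BSA, pH 7.4. Compounds (0.32 nM–10 µM final) preincubated 10 min, then PK1 added at EC80; fluorescence read at 525 nm (excitation 485 nm).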
As for `COc1ccc(C2CCCCN(C(=O)c3cnnc(N(C)C)c3)C2)cc1` (stereo not shown) [Example 114, 5-{[3-(4-Methoxyphenyl)azepan-1-yl]carbonyl}-N,N-dimethylpyridazin-3-amine], the IC50 – broadly, the concentration at which inhibition is half-maximal – is 1430 nM.
In the case of `CN(C)c1cc(C(=O)N2CCCCC(c3ccc(Cl)cc3)C2)cnn1` (stereo not shown) [Example 115, 5-{[3-(4-Chlorophenyl)azepan-1-yl]carbonyl}-N,N-dimethylpyridazin-3-amine] it was 1440 nM; in that of `Cc1cc(Cl)ccc1C1(O)CCCN(C(=O)c2ccnc(N(C)C)c2)C1` (stereo not shown) [Example 116, 3-(4-Chloro-2-methylphenyl)-1-{[2-(dimethylamino)pyridin-4-yl]carbonyl}piperidin-3-ol], 1360 nM.
Take `CN(C)c1cc(C(=O)N2CCCC(O)(c3ccc(F)cc3)C2)ccn1` (stereo not shown) [Example 117, 1-{[2-(Dimethylamino)pyridin-4-yl]carbonyl}-3-(4-fluorophenyl)piperidin-3-ol]: the IC50 was determined as 3940 nM.
